Experimental data: PMC6301270 (MedChemComm, 2018)

System: T.b. brucei (strain 427) bloodstream form parasites
Assay: T.b. brucei single concentration screen (10 μM)
Settings: Trypanosoma brucei, read-out: T.b.brucei % viability (10 µM)

Row | SMILES | viability at 10 µM [%]
1 | CC1(COc2ccc(N3CCC(Oc4ccc(OC(F)(F)F)cc4)CC3)cc2)Cn2cc([N+](=O)[O-])nc2O1 (stereo not shown) [MMV688262, CC1(COc2ccc(cc2)N3CCC(CC3)Oc4ccc(OC(F)(F)F)cc4)Cn5cc(nc5O1)N(=O)=O] | 74
2 | COc1ccc(-c2cnc3cnc(-c4cccc(OC(C)C)c4)cn23)cc1 [MMV688270, COc1ccc(cc1)-c1cnc2cnc(cn12)-c1cccc(OC(C)C)c1] | 99
3 | Nc1ccc2ncnc(Nc3ccc(OCc4cccc(F)c4)c(Cl)c3)c2c1 [MMV688273, Nc1ccc2ncnc(Nc3ccc(OCc4cccc(F)c4)c(Cl)c3)c2c1] | 56
4 | O=C(CN1CCOCC1)Nc1ccc2ncnc(Nc3ccc(OCc4cccc(F)c4)c(Cl)c3)c2c1 [MMV688274, Fc1cccc(COc2ccc(Nc3ncnc4ccc(NC(=O)CN5CCOCC5)cc34)cc2Cl)c1] | 63
5 | COc1ccc(-c2nnc3ccc(-c4cccc(C(C)C)c4)cn23)cc1OC [MMV688313, COc1ccc(cc1OC)-c1nnc2ccc(cn12)-c1cccc(c1)C(C)C] | 92
6 | CC(=O)NCC1CN(c2ccc(-c3ccc(CNCc4cn[nH]n4)cc3)c(F)c2)C(=O)O1 (stereo not shown) [MMV688327, CC(=O)NCC1CN(C(=O)O1)c2ccc(c(F)c2)c3ccc(CNCc4cn[nH]n4)cc3] | 68
7 | CC(=O)N1CCN(c2ccc(Oc3ccc(Cl)cc3O)cc2)CC1 [MMV688330, CC(=O)N1CCN(CC1)c1ccc(Oc2ccc(Cl)cc2O)cc1] | 103
8 | Nc1nc(N)c2c3c(sc2n1)CN(Cc1ccccc1)CC3 [MMV688345, Nc1nc(N)c2c3CCN(Cc4ccccc4)Cc3sc2n1] | 110
9 | COC(=O)c1ccc(F)cc1NS(=O)(=O)c1cccc(-c2cnn(Cc3ccccc3)c2)c1 [MMV688350, COC(=O)c1ccc(F)cc1NS(=O)(=O)c2cccc(c2)c3cnn(Cc4ccccc4)c3] | 85
10 | O=C1[C@@H](Oc2ccccc2)[C@@H](c2ccc(Cl)cc2)N1CCn1cnc2c(NCc3ccccc3)ncnc21 [MMV688352, Clc1ccc(cc1)[C@@H]2[C@H](Oc3ccccc3)C(=O)N2CCn4cnc5c(NCc6ccccc6)ncnc45] | 107
11 | c1cc(C2=NCCN2)cc(-c2cc(-c3ccc(C4=NCCN4)cc3)no2)c1 [MMV688361, C1CN=C(N1)c2ccc(cc2)c3cc(on3)c4cccc(c4)C5=NCCN5] | 18
12 | COc1cc(C2=NCCN2)cc2cc(-c3ccc(C4=NCCN4)cc3)oc12 [MMV688362, COc1cc(cc2cc(oc12)c3ccc(cc3)C4=NCCN4)C5=NCCN5] | 35
13 | CC(C)(C)OC(=O)N1CCC(Cn2nc(-c3cnc4ccccc4c3)c3c(N)ncnc32)CC1 [MMV688364, CC(C)(C)OC(=O)N1CCC(Cn2nc(-c3cnc4ccccc4c3)c3c(N)ncnc23)CC1] | 102
14 | COc1cc(C2=NCCN2)ccc1-c1cn(-c2cccc(C3=NCCN3)c2)nn1 [MMV688407, COc1cc(ccc1c2cn(nn2)c3cccc(c3)C4=NCCN4)C5=NCCN5] | 87
15 | CC1=Nc2ccc(Cl)cc2C(c2ccccc2)N1CCNC(=O)CN(C)C (stereo not shown) [MMV688410, CN(C)CC(=O)NCCN1C(c2ccccc2)c3cc(Cl)ccc3N=C1C] | 77
16 | Nc1ncnc2c1c(-c1cnc3ccccc3c1)nn2CC1CCNCC1 [MMV688411, Nc1ncnc2n(CC3CCNCC3)nc(-c3cnc4ccccc4c3)c12] | 104
17 | CO[C@@H]1CN(c2ccc(C#CC3(O)CN4CCC3CC4)c(Cc3ccccc3)n2)C[C@H]1O (stereo partly shown) [MMV688415, CO[C@@H]1CN(C[C@H]1O)c2ccc(C#CC3(O)CN4CCC3CC4)c(Cc5ccccc5)n2] | 99
18 | CC(C)(C)OC(=O)N1CCN(c2nccc(-c3ccc(-c4ccc(Cl)cc4)s3)n2)CC1 [MMV688416, CC(C)(C)OC(=O)N1CCN(CC1)c2nccc(n2)c3ccc(s3)c4ccc(Cl)cc4] | 94
19 | Cn1ccnc1CNCCS(=O)(=O)c1cccc(Nc2ccc(-c3cccc(F)c3)cn2)c1 [MMV688466, Cn1ccnc1CNCCS(=O)(=O)c2cccc(Nc3ccc(cn3)c4cccc(F)c4)c2] | 87
20 | Nc1ncnc2[nH]nc(Cc3cccc4ccccc34)c12 [MMV688469, Nc1ncnc2[nH]nc(Cc3cccc4ccccc34)c12] | 98
21 | CS(=O)(=O)N1CCC(CCn2nc(Cc3cccc4ccccc34)c3c(N)ncnc32)CC1 [MMV688470, CS(=O)(=O)N1CCC(CCn2nc(Cc3cccc4ccccc34)c3c(N)ncnc23)CC1] | 99
22 | CC(C(=O)Nc1ccc2oc(-c3ccncc3)nc2c1)c1ccccc1 (stereo not shown) [MMV688471, CC(C(=O)Nc1ccc2oc(nc2c1)-c1ccncc1)c1ccccc1] | 67
23 | CC(Oc1cccc(Cl)c1)C(=O)Nc1ccc2oc(-c3ccncc3)nc2c1 (stereo not shown) [MMV688472, CC(Oc1cccc(Cl)c1)C(=O)Nc1ccc2oc(nc2c1)-c1ccncc1] | 71
24 | COc1cc(C2=NCCN2)ccc1-n1cc(-c2cccc(C3=NCCN3)c2)nn1 [MMV688474, COc1cc(ccc1n2cc(nn2)c3cccc(c3)C4=NCCN4)C5=NCCN5] | 105
25 | CC(=O)NCC1CN(c2ccc(-c3ccc(CO)cc3)c(F)c2)C(=O)O1 (stereo not shown) [MMV688508, CC(=O)NCC1CN(C(=O)O1)c2ccc(c(F)c2)c3ccc(CO)cc3] | 81
26 | O=C(OCc1ccccc1)N1CCC(c2cc(-c3ccncc3)c(-c3ccc(F)cc3)[nH]2)CC1 [MMV688509, Fc1ccc(cc1)-c1[nH]c(cc1-c1ccncc1)C1CCN(CC1)C(=O)OCc1ccccc1] | 85

Row | SMILES | viability at 10 µM [%]
27 | CC(C)(C)C(=O)N(CCCCCCN1C[C@H](O)[C@@H](O)[C@H](O)[C@H]1CO)C1CCCCCC1 [MMV688543, CC(C)(C)C(=O)N(CCCCCCN1C[C@H](O)[C@@H](O)[C@H](O)[C@H]1CO)C2CCCCCC2] | 107
28 | COc1ccc(C2=NCCN2)cc1-c1cn(-c2cccc(C3=NCCN3)c2)nn1 [MMV688547, COc1ccc(cc1c2cn(nn2)c3cccc(c3)C4=NCCN4)C5=NCCN5] | 77
29 | CC(C)(C)n1nc(-c2ccccc2)c2c(N)ncnc21 [MMV688548, CC(C)(C)n1nc(-c2ccccc2)c2c(N)ncnc12] | 81
30 | Cc1nn(C(=O)Nc2cccc(C(F)(F)F)c2)c(C)c1Sc1ncccn1 [MMV688552, CC(C(SC1=NC=CC=N1)=C2C)=NN2C(NC3=CC=CC(C(F)(F)F)=C3)=O] | 96
31 | O=C(NCc1ccoc1)N1CCN(Cc2ccc3c(c2)OCO3)CC1 [MMV688553, O=C(NCc1cocc1)N2CCN(Cc3ccc4OCOc4c3)CC2] | 98
32 | CNc1snc(C)c1C(=O)NCCOc1ccc(OC)cc1 [MMV688554, CNc1snc(C)c1C(=O)NCCOc2ccc(OC)cc2] | 92
33 | O=C(NCc1ccco1)N1CCN(Cc2ccc(Cl)s2)CC1 [MMV688555, Clc1ccc(CN2CCN(CC2)C(=O)NCc3occc3)s1] | 103
34 | NCC(c1cccs1)S(=O)(=O)c1ccccc1 (stereo not shown) [MMV688557, NCC(c1cccs1)S(=O)(=O)c2ccccc2] | 99
35 | CN1CCC(c2cc(-c3ccncc3)c(-c3ccc(F)cc3)[nH]2)CC1 [MMV688703, CN1CCC(CC1)c1cc(c([nH]1)-c1ccc(F)cc1)-c1ccncc1] | 68
36 | Cc1cc2nc(NC(=O)C(C)(C)C)nc(Cl)c2n1Cc1ccc(Cl)cc1 [MMV688704, Cc1cc2nc(NC(=O)C(C)(C)C)nc(Cl)c2n1Cc1ccc(Cl)cc1] | 88
37 | CO/N=C(\C(=O)OC)c1ccccc1CO/N=C(\C)c1cccc(C(F)(F)F)c1 [MMV688754, CO\N=C(/C(=O)OC)\c1ccccc1CO\N=C(/C)\c2cccc(c2)C(F)(F)F] | 100
38 | O=[N+]([O-])c1cn2c(n1)OC[C@@H](OCc1ccc(OC(F)(F)F)cc1)C2 [MMV688755, [O-][N+](=O)c1cn2C[C@@H](COc2n1)OCc3ccc(OC(F)(F)F)cc3] | 95
39 | CC(=O)NC[C@H]1CN(c2ccc(N3CCSCC3)c(F)c2)C(=O)O1 [MMV688756, CC(=O)NC[C@H]1CN(C(=O)O1)c2ccc(N3CCSCC3)c(F)c2] | 106
40 | c1ccc(-c2[nH]c3ccccc3c2C(c2ccccn2)N2CCCC2)cc1 (stereo not shown) [MMV688762, C1CCN(C1)C(c2ccccn2)c3c([nH]c4ccccc34)c5ccccc5] | 108
41 | CNc1nnc(Sc2cnn(-c3ccccc3)c(=O)c2Cl)s1 [MMV688763, CNc1nnc(SC2=C(Cl)C(=O)N(N=C2)c3ccccc3)s1] | 49
42 | COc1ccc(-c2onc(C(F)(F)F)c2-c2ccc(Cl)cc2)c(O)c1 [MMV688766, COc1ccc(c(O)c1)c2onc(c2c3ccc(Cl)cc3)C(F)(F)F] | 88
43 | Cc1ccccc1C(=O)N1N=C(Nc2ccccc2)SC1(C)C [MMV688771, Cc1ccccc1C(=O)N2N=C(Nc3ccccc3)SC2(C)C] | 97
44 | O=C(N[C@H](Cc1ccccc1)C(=O)Nc1ccccc1N1CCOCC1)c1cccs1 [MMV688845, O=C(Nc1ccccc1N2CCOCC2)[C@@H](Cc3ccccc3)NC(=O)c4cccs4] | 94
45 | Cc1ccccc1CN1CCC(O)(c2ccc(Cl)c(C(F)(F)F)c2)CC1 [MMV688846, Cc1ccccc1CN2CCC(O)(CC2)c3ccc(Cl)c(c3)C(F)(F)F] | 98
46 | CC(C)(C)n1nc(Cc2ccc(F)c(Cl)c2)c2c(N)ncnc21 [MMV688852, CC(C)(C)n1nc(Cc2ccc(F)c(Cl)c2)c2c(N)ncnc12] | 87
47 | CCOc1ccc2cc(-c3nn(C(C)(C)C)c(N)c3C(N)=O)cnc2c1 [MMV688853, CCOc1ccc2cc(cnc2c1)c3nn(c(N)c3C(=O)N)C(C)(C)C] | 99
48 | CCOc1ccc2cc(-c3nn(CC4CCN(C)CC4)c4ncnc(N)c34)ccc2c1 [MMV688854, CCOc1ccc2cc(ccc2c1)c3nn(CC4CCN(C)CC4)c5ncnc(N)c35] | 33
49 | CN1CCN(c2cc(-c3ccc(F)cc3)nc(-c3ccncc3)n2)CC1 [MMV688888, CN1CCN(CC1)c2cc(nc(n2)c3ccncc3)c4ccc(F)cc4] | 92
50 | Clc1ccc(CCNc2cc(-c3ccccc3)nc3ncnn23)cc1 [MMV688889, Clc1ccc(CCNc2cc(nc3ncnn23)c4ccccc4)cc1] | 74
51 | COc1cc(Br)cc2cc(C(=O)Nc3cccc(C(F)(F)F)c3)c(=O)oc12 [MMV688891, COc1cc(Br)cc2C=C(C(=O)Nc3cccc(c3)C(F)(F)F)C(=O)Oc12] | 96
52 | OC[C@H]1O[C@@H](n2c3ccc(Cl)cc3c3c(-c4cc5ccccc5o4)ncnc32)C(O)[C@H]1O (stereo partly shown) [MMV688921, OC[C@H]1O[C@H](C(O)[C@H]1O)n2c3ccc(Cl)cc3c4c(ncnc24)c5oc6ccccc6c5] | 97
